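Test compounds were applied to cells in 96-well plates for 48 hours at 5 doses. TGI is the concentration that stops growth completely.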
Legend:
Test in all cases: NCI-60 cell line screen, 48 h
[1] = system: LOX IMVI melanoma
[2] = system: UACC-62 melanoma
[3] = system: SN12C renal
[4] = system: DU-145 prostate
[5] = system: UACC-257 melanoma
[6] = system: K-562 leukemia
[7] = system: NCI-H226 lung
[8] = system: TK-10 renal
[9] = system: NCI-H460 lung
[10] = system: IGROV1 ovarian
[11] = system: OVCAR-3 ovarian
[12] = system: SW-620 colon
[13] = system: SNB-19 CNS
[14] = system: NCI/ADR-RES ovarian
[15] = system: MDA-MB-435
[16] = system: HOP-62 NSCLC
[17] = system: PC-3 prostate
[18] = system: HCT-116 colon
[19] = system: OVCAR-5 ovarian
[20] = system: BT-549 breast
[21] = system: HOP-92 NSCLC
[22] = system: A498 renal
[23] = system: T-47D breast
[24] = system: RXF 393 renal
[25] = system: SK-MEL-2 melanoma
[26] = system: MDA-MB-231 breast
[27] = system: NCI-H23 lung
[28] = system: SK-OV-3 ovarian
[29] = system: CAKI-1 renal
[30] = system: COLO 205 colon
[31] = system: M14 melanoma
[32] = system: UO-31 renal
[33] = system: OVCAR-8 ovarian
[34] = system: MDA-N
[35] = system: OVCAR-4 ovarian
[36] = system: U251 CNS
[37] = system: HL-60(TB) leukemia
[38] = system: SK-MEL-28 melanoma
[39] = system: MOLT-4 leukemia
[40] = system: SR leukemia
[41] = system: HCT-15 colon
[42] = system: KM12 colon
[43] = system: SF-295 CNS
[44] = system: CCRF-CEM leukemia
[45] = system: MCF7 breast
[46] = system: HT29 colon
[47] = system: MALME-3M melanoma
[48] = system: RPMI-8226 leukemia
[49] = system: ACHN renal
[50] = system: A549 NSCLC
[51] = system: SF-268 CNS
[52] = system: SK-MEL-5 melanoma
[53] = system: NCI-H522 lung
[54] = system: 786-0 renal
[55] = system: HCC-2998 colon
[56] = system: EKVX NSCLC
[57] = system: SF-539 CNS
[58] = system: HS 578T breast
[59] = system: SNB-75 CNS

## CC(C)(C)[Si](C)(C)OCC1OC(n2cnc3c(N)ncnc32)CC1OS(C)(=O)=O (configuration not stated)
[1]
  TGI: > 100 µM
[2]
  TGI: > 100 µM
[3]
  TGI: > 100 µM
[4]
  TGI: > 100 µM
[5]
  TGI: > 100 µM
[6]
  TGI: > 100 µM
[7]
  TGI: > 100 µM
[8]
  TGI: > 100 µM
[9]
  TGI: > 100 µM
[10]
  TGI: > 100 µM
[11]
  TGI: > 100 µM
[12]
  TGI: > 100 µM
[13]
  TGI: > 100 µM
[14]
  TGI: > 100 µM
[15]
  TGI: > 100 µM
[16]
  TGI: > 100 µM
[17]
  TGI: > 100 µM
[18]
  TGI: > 100 µM
[19]
  TGI: > 100 µM
[20]
  TGI: > 100 µM
[21]
  TGI: 17.3 µM
[22]
  TGI: > 100 µM
[23]
  TGI: > 100 µM
[24]
  TGI: > 100 µM
[25]
  TGI: > 100 µM
[26]
  TGI: > 100 µM
[27]
  TGI: > 100 µM
[28]
  TGI: > 100 µM
[29]
  TGI: > 100 µM
[30]
  TGI: > 100 µM
[31]
  TGI: > 100 µM
[32]
  TGI: > 100 µM
[33]
  TGI: > 100 µM
[34]
  TGI: > 100 µM
[35]
  TGI: > 100 µM
[36]
  TGI: > 100 µM
[37]
  TGI: > 100 µM
[38]
  TGI: > 100 µM
[39]
  TGI: > 100 µM
[40]
  TGI: > 100 µM
[41]
  TGI: > 100 µM
[42]
  TGI: > 100 µM
[43]
  TGI: > 100 µM
[44]
  TGI: > 100 µM
[45]
  TGI: > 100 µM
[46]
  TGI: > 100 µM
[47]
  TGI: > 100 µM
[48]
  TGI: > 100 µM

## O=[N+]([O-])/C=C\c1c[nH]c2ccc(OCc3ccccc3)cc12
[1]
  TGI: 3.5 µM
[2]
  TGI: 14.1 µM
[49]
  TGI: 4.72 µM
[50]
  TGI: 14.8 µM
[3]
  TGI: 10 µM
[4]
  TGI: 22.2 µM
[5]
  TGI: 3.73 µM
[6]
  TGI: 6.88 µM
[7]
  TGI: 13.4 µM
[8]
  TGI: 23.1 µM
[9]
  TGI: 25.1 µM
[10]
  TGI: 15.8 µM
[11]
  TGI: 22.8 µM
[12]
  TGI: 7.31 µM
[13]
  TGI: 16.5 µM
[14]
  TGI: 50.1 µM
[15]
  TGI: 4.73 µM
[16]
  TGI: 29.4 µM
[51]
  TGI: 25.6 µM
[52]
  TGI: 19.2 µM
[17]
  TGI: 21.5 µM
[53]
  TGI: 22.4 µM
[18]
  TGI: 3.27 µM
[19]
  TGI: 25.6 µM
[21]
  TGI: 19.4 µM
[22]
  TGI: 22.6 µM
[54]
  TGI: 4.56 µM
[23]
  TGI: 12.4 µM
[55]
  TGI: 3.66 µM
[24]
  TGI: 6.73 µM
[25]
  TGI: 24 µM
[26]
  TGI: 18 µM
[27]
  TGI: 7.33 µM
[28]
  TGI: 31.6 µM
[29]
  TGI: 53.5 µM
[30]
  TGI: 13.4 µM
[31]
  TGI: 4.49 µM
[56]
  TGI: 29.3 µM
[32]
  TGI: 15.2 µM
[33]
  TGI: 17.1 µM
[34]
  TGI: 5.56 µM
[57]
  TGI: 22.6 µM
[36]
  TGI: 19 µM
[37]
  TGI: 8.78 µM
[38]
  TGI: 9.47 µM
[39]
  TGI: > 100 µM
[40]
  TGI: 4.91 µM
[42]
  TGI: 8.86 µM
[43]
  TGI: 23.8 µM
[58]
  TGI: 7.24 µM
[44]
  TGI: > 100 µM
[45]
  TGI: 73.7 µM
[47]
  TGI: 25.9 µM
[48]
  TGI: 4.62 µM

## NC(=S)N1N=C(c2ccccc2O)CC1c1ccccc1 (configuration not stated)
[1]
  TGI: 46.2 µM
[2]
  TGI: 29.7 µM
[49]
  TGI: 61.8 µM
[50]
  TGI: 84.6 µM
[3]
  TGI: 45.3 µM
[4]
  TGI: 81.3 µM
[5]
  TGI: 39.1 µM
[6]
  TGI: > 100 µM
[7]
  TGI: 53.8 µM
[8]
  TGI: 78.3 µM
[9]
  TGI: 35.6 µM
[10]
  TGI: 48.6 µM
[11]
  TGI: 31.2 µM
[12]
  TGI: > 100 µM
[13]
  TGI: > 100 µM
[14]
  TGI: 50.6 µM
[15]
  TGI: 20.2 µM
[16]
  TGI: 25.5 µM
[51]
  TGI: 80.6 µM
[52]
  TGI: 23.1 µM
[17]
  TGI: 22.8 µM
[53]
  TGI: 18.8 µM
[18]
  TGI: 28.1 µM
[19]
  TGI: 50.9 µM
[20]
  TGI: 75 µM
[21]
  TGI: 54.6 µM
[22]
  TGI: 30.1 µM
[59]
  TGI: 52.9 µM
[54]
  TGI: 60 µM
[23]
  TGI: 68.5 µM
[55]
  TGI: 27.3 µM
[24]
  TGI: 41.6 µM
[25]
  TGI: 20.3 µM
[27]
  TGI: 61.3 µM
[28]
  TGI: 49.8 µM
[29]
  TGI: > 100 µM
[30]
  TGI: 26.5 µM
[31]
  TGI: 24.5 µM
[56]
  TGI: 70.6 µM
[32]
  TGI: 53.6 µM
[33]
  TGI: > 100 µM
[34]
  TGI: 10.5 µM
[35]
  TGI: 67.1 µM
[57]
  TGI: 36.1 µM
[36]
  TGI: 43.8 µM
[37]
  TGI: 27.4 µM
[38]
  TGI: 58.5 µM
[39]
  TGI: 78.7 µM
[41]
  TGI: 39 µM
[42]
  TGI: 43.4 µM
[43]
  TGI: 29.2 µM
[58]
  TGI: 72.4 µM
[44]
  TGI: > 100 µM
[45]
  TGI: 20.8 µM
[46]
  TGI: 28.9 µM
[47]
  TGI: 42.3 µM
[48]
  TGI: 39.3 µM

## Cc1cc(=O)[nH]c(/N=C(\N)Nc2ccc(Cl)cc2)n1
[1]
  TGI: > 100 µM
[2]
  TGI: > 100 µM
[49]
  TGI: > 100 µM
[50]
  TGI: > 100 µM
[3]
  TGI: > 100 µM
[4]
  TGI: > 100 µM
[5]
  TGI: > 100 µM
[6]
  TGI: > 100 µM
[7]
  TGI: > 100 µM
[8]
  TGI: > 100 µM
[9]
  TGI: > 100 µM
[10]
  TGI: > 100 µM
[11]
  TGI: > 100 µM
[12]
  TGI: > 100 µM
[13]
  TGI: > 100 µM
[14]
  TGI: > 100 µM
[15]
  TGI: > 100 µM
[16]
  TGI: > 100 µM
[51]
  TGI: > 100 µM
[52]
  TGI: > 100 µM
[17]
  TGI: > 100 µM
[53]
  TGI: > 100 µM
[18]
  TGI: > 100 µM
[19]
  TGI: > 100 µM
[20]
  TGI: > 100 µM
[21]
  TGI: > 100 µM
[22]
  TGI: > 100 µM
[54]
  TGI: > 100 µM
[23]
  TGI: > 100 µM
[55]
  TGI: > 100 µM
[24]
  TGI: > 100 µM
[25]
  TGI: > 100 µM
[26]
  TGI: > 100 µM
[27]
  TGI: > 100 µM
[29]
  TGI: > 100 µM
[31]
  TGI: > 100 µM
[56]
  TGI: > 100 µM
[32]
  TGI: > 100 µM
[33]
  TGI: > 100 µM
[34]
  TGI: > 100 µM
[36]
  TGI: > 100 µM
[37]
  TGI: > 100 µM
[38]
  TGI: > 100 µM
[39]
  TGI: > 100 µM
[40]
  TGI: > 100 µM
[41]
  TGI: > 100 µM
[42]
  TGI: > 100 µM
[43]
  TGI: > 100 µM
[58]
  TGI: > 100 µM
[44]
  TGI: > 100 µM
[46]
  TGI: > 100 µM
[47]
  TGI: > 100 µM
[48]
  TGI: > 100 µM

Source: PubChem BioAssay (NCI)
